Source: US8188273B2, “Insecticidal (1,3,5)-triazinyl phenyl hydrazones” (Dow AgroSciences, LLC., priority 2007, dated 2012)

How the values were obtained:
[1] = tested on: corn earworm (Helicoverpa zea); test: Insecticidal test on treated lepidopteran diet, corn earworm; type: in vivo; settings: 120 h; second-instar larvae on treated diet, 8 wells; dose of 50 mg/cm^2 [sic] (2000 ppm, 50 μL); dead insects counted 5 days after treatment; read-out: AVG HELIZE 50 (percent control, corn ear worm)
Protocol: (§1) The compounds identified in Table 1 were prepared according to the previous methods and were tested against beet armyworm and corn earworm as follows:
(§2) Insecticidal Test for Corn Earworm (Helicoverpa zea) and Beet Armyworm (Spodoptera exigua).
(§3) To prepare test solution, the test compound was formulated at 2000 ppm solution as 4 mg/2 mL of 9 acetone:1 tap water. 50 μL of the 2000 ppm (equivalent to 50 μg/cm^2 dose on diet surface area) test solution was pipetted upon the surface of 1 mL of lepidopteran diet (Southland Multi-Species Lepidopteran Diet) contained in each of eight wells per insect species (one well=1 replication). A second-instar corn earworm and beet armyworm was placed upon the treated diet in each well once the solvent had air-dried. Trays containing the treated diet and larvae were covered and then held in a growth chamber at 25° C., 50-55% RH, and 16 hr light:8 hr dark for 5 days. Observation were conducted 5 days after treatment and infestation. The number of dead insects of 8 per species per treatment was then determined and the results are given in Table 1 as a percent control at a dose of […].
(§4) Keys to the table: Mass spectral data were obtained using liquid chromatography mass spectroscopy (LC-MS). The masses are detected using electrospray ionization (ESI) and reported as Mol Ion (M+H, M−H); AVG LAPHEG 50 refers to activity against beet army worm (Spodoptera exigua) as defined above; AVG HELIZE 50 refers to activity against corn ear worm (Helicoverpa zea) as described above.

[2] = tested on: beet armyworm (Spodoptera exigua); test: Insecticidal test on treated lepidopteran diet, beet armyworm; type: in vivo; settings: 120 h, second-instar larvae on treated diet, 8 wells, dose of 50 mg/cm^2 [sic] (2000 ppm, 50 μL), dead insects counted 5 days after treatment, read-out: AVG LAPHEG 50 (percent control, beet army worm)
Protocol: as §1, §2, §3, §4

With Fc1ccc(Nc2ncnc(N/N=C/c3ccc(OC(F)(F)C(F)F)cc3)n2)cc1C(F)(F)F [Compound 97] the pest or weed control at 2000 µg/mL [1] was 100% and the pest or weed control at 2000 µg/mL [2] was 100%.

For FC(F)(F)COc1nc(N/N=C/c2ccc(Br)cc2)nc(Nc2ccc(OC(F)(F)F)cc2)n1 [Compound 98], the pest or weed control at 2000 µg/mL [1] was 100% and the pest or weed control at 2000 µg/mL [2] was 100%.

FC(F)C(F)(F)Oc1ccc(/C=N/Nc2ncnc(Nc3cccc(C(F)(F)F)c3)n2)cc1 [Compound 100] gave a pest or weed control at 2000 µg/mL [1] of 100% and a pest or weed control at 2000 µg/mL [2] of 100%.

FC(F)(F)Oc1ccc(/C=N/Nc2ncnc(Nc3cccc(C(F)(F)F)c3)n2)cc1 [Compound 101] gave a pest or weed control at 2000 µg/mL [1] of 100% and a pest or weed control at 2000 µg/mL [2] of 100%.

Fc1ccc(Nc2ncnc(N/N=C/c3cccc(C(F)(F)F)c3)n2)cc1C(F)(F)F [Compound 102] gave a pest or weed control at 2000 µg/mL [1] of 100% and a pest or weed control at 2000 µg/mL [2] of 100%.

FC(F)(F)c1cccc(/C=N/Nc2ncnc(Nc3cccc(C(F)(F)F)c3)n2)c1 [Compound 103] gave a pest or weed control at 2000 µg/mL [1] of 100% and a pest or weed control at 2000 µg/mL [2] of 38%.

FC(F)C(F)(F)Oc1ccc(Nc2ncnc(N/N=C/c3cccc(C(F)(F)F)c3)n2)cc1 [Compound 104] showed a pest or weed control at 2000 µg/mL [1] of 88% and a pest or weed control at 2000 µg/mL [2] of 50%.
